Where two headings read alike, the source gives them in different places.
Legend:
[1] = molecular target: CT-L activity of purified 20S proteasome (Oryctolagus cuniculus, UniProt G1SU71+G1T4Q9); experiment: Proteolytic activity of purified 20S proteasome, CT-L; assay type: biochemical, rabbit
T80-Hras ovarian cells = experiment: MTT cell viability assay; assay type: cell-based, human; settings: read-out: IC50 cell viability (MTT)
[2] = tested on: primary multiple myeloma cells from patients' bone marrow; experiment: Proliferation of primary MM cells; assay type: cell-based, human; settings: read-out: IC50 Proliferation
[3] = tested on: primary multiple myeloma cells from patients' bone marrow; experiment: Cell death of primary MM cells; assay type: cell-based, human; settings: read-out: IC50 Cell Death
[4] = tested on: MCF-7 human breast tumors; experiment: MCF-7 xenograft in nude mice; assay type: in vivo; settings: MCF-7 s.c. xenograft, 1 mpk i.p. 2x weekly; for average tumor size: start ~200 mm^3, 16 days
A549 human lung tumors = experiment: A549 xenograft in nude mice; assay type: in vivo; settings: A549 s.c. xenograft, 1 mpk i.p. 2x weekly; for average tumor size: start ~200 mm^3, 16 days
[5] = molecular target: tumor CT-L activity of the proteasome (Homo sapiens, UniProt P20618+P28074); experiment: Proteasome activity in A549 tumor lysates after in vivo treatment, CT-L; design: species or system nude mice; settings: A549 tumors, 1 mpk i.p., 2 h after last injection
[6] = molecular target: tumor T-L activity of the proteasome (Homo sapiens, UniProt Q99436); experiment: Proteasome activity in A549 tumor lysates after in vivo treatment, T-L; design: species or system nude mice; settings: A549 tumors, 1 mpk i.p., 2 h after last injection
[7] = molecular target: tumor PGPH activity of the proteasome (Homo sapiens, UniProt P28072); experiment: Proteasome activity in A549 tumor lysates after in vivo treatment, PGPH; design: species or system nude mice; settings: A549 tumors, 1 mpk i.p., 2 h after last injection
[8] = tested on: p27^Kip1 levels in A549 lung cancer cells; experiment: Western blot of p27Kip1 in cultured A549 cells; assay type: cell-based, human; settings: 48 h
[9] = tested on: MCF-7/MCF-10A, T80-Hras/T80, C7-Kras/C7 cells; experiment: TUNEL apoptosis assay in 3 pairs of cell lines; assay type: cell-based, human; settings: 24 h
[10] = tested on: all cancer and non-transformed cell lines except RPMI-8226; experiment: MTT cell viability assay, panel of cancer and non-transformed cell lines; assay type: cell-based; settings: Homo sapiens, RPMI-8226, 24 h, read-out: IC50 cell viability (MTT)
[11] = molecular target: T-L activity of purified 20S proteasome (Oryctolagus cuniculus, UniProt G1SWK8); experiment: Proteolytic activity of purified 20S proteasome, T-L; assay type: biochemical, rabbit; settings: read-out: IC50 T-L, in vitro
T-L activity of purified 20S proteasome, sequence (G1SWK8 44-271): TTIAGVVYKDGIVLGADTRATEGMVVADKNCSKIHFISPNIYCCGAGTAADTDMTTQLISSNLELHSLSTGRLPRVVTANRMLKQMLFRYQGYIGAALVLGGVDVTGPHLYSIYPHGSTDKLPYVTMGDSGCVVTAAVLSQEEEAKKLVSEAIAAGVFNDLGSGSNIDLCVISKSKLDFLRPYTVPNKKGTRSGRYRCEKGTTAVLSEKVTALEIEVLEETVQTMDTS

[12] = molecular target: PGPH activity of purified 20S proteasome (Oryctolagus cuniculus, UniProt G1T235); experiment: Proteolytic activity of purified 20S proteasome, PGPH; assay type: biochemical, rabbit; settings: read-out: IC50 PGPH, in vitro
PGPH activity of purified 20S proteasome, sequence (G1T235 96-265): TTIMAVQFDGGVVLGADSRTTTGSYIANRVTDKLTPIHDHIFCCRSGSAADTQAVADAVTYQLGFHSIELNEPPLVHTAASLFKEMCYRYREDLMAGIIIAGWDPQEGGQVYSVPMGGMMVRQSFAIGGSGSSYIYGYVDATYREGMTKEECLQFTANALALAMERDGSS

[13] = tested on: MCF-7 breast cancer cells; experiment: MTT cell viability assay; assay type: cell-based, human; settings: read-out: IC50 cell viability (MTT)
[14] = tested on: MCF-10A immortalized non-transformed breast cells; experiment: MTT cell viability assay; assay type: cell-based, human
[15] = tested on: C7-Kras (HPDE6-C7K-ras) pancreatic cells; experiment: MTT cell viability assay; assay type: cell-based, human
[16] = tested on: C7 (HPDE6-C7) normal/immortalized pancreatic duct epithelial cells; experiment: MTT cell viability assay; assay type: cell-based, human; settings: read-out: IC50 cell viability (MTT)
[17] = tested on: DU-145 prostate cancer cells; experiment: MTT cell viability assay; assay type: cell-based, human; settings: read-out: IC50 cell viability (MTT)
[18] = tested on: LNCaP prostate cancer cells; experiment: MTT cell viability assay; assay type: cell-based, human
CaLu-1 lung cancer cells = experiment: MTT cell viability assay; assay type: cell-based, human; settings: read-out: IC50 cell viability (MTT)
A549 lung cancer cells = experiment: MTT cell viability assay; assay type: cell-based, human; settings: read-out: IC50 cell viability (MTT)
[19] = tested on: U266 multiple myeloma cells; experiment: MTT cell viability assay; assay type: cell-based, human; settings: read-out: IC50 cell viability (MTT)
[20] = tested on: RPMI-8226 multiple myeloma cells; experiment: MTT cell viability assay; assay type: cell-based, human; settings: read-out: IC50 cell viability (MTT)
[21] = molecular target: T1, CT-L activity of the proteasome in primary multiple myeloma cells (Homo sapiens, UniProt P20618+P28074); experiment: CT-L activity in primary MM cells from patients' bone marrow; assay type: cell-based; settings: read-out: IC50 CT-L Activity
T1 sequence (P28074 60-263): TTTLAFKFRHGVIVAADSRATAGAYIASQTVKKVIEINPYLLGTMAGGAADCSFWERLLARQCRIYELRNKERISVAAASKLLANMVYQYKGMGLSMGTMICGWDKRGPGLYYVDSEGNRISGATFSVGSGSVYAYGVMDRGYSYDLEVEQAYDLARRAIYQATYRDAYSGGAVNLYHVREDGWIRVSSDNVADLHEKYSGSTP
T1 sequence (P20618 29-241): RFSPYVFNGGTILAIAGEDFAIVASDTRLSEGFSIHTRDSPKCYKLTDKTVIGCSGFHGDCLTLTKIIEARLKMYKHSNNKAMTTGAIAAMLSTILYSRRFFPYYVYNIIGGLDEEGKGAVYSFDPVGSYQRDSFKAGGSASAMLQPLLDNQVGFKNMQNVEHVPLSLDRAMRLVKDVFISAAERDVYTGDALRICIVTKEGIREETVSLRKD

[22] = tested on: primary multiple myeloma cells from patients' bone marrow; experiment: Viability of primary MM cells; assay type: cell-based, human; settings: read-out: IC50 Viability
[23] = molecular target: hepatic CT-L, T-L, and PGPH activities (Mus musculus, UniProt O09061+O55234+P70195+Q60692); assay type: in vivo, nude mice; settings: livers of A549 tumor-bearing mice, 1 mpk i.p., 2 h after last injection
[24] = molecular target: CT-L activity in MCF-7/MCF-10A, T80-Hras/T80, C7-Kras/C7 cells (Homo sapiens, UniProt P20618+P28074); assay type: cell-based; settings: 24 h, 3 pairs of cell lines, Fig. 2
[25] = tested on: MCF-7/MCF-10A, T80-Hras/T80, C7-Kras/C7 cells; experiment: Proliferation by Trypan Blue cell counting in 3 pairs of cell lines; assay type: cell-based, human; settings: 24 h, Fig. 3
[26] = tested on: MCF-7/MCF-10A, T80-Hras/T80, C7-Kras/C7 cells; experiment: Cell death by Trypan Blue exclusion in 3 pairs of cell lines; assay type: cell-based, human; settings: 24 h, Fig. 4
[27] = Tolerability in treated mice; assay type: in vivo; settings: mice treated with PI-083
[28] = Homo sapiens, Multiple myeloma cell, 24 h
[29] = read-out: IC50 cell viability (MTT), 24 h
[30] = read-out: IC50 cell viability (MTT), 72 h

CT-L activity of purified 20S proteasome, sequence (G1T4Q9 60-263): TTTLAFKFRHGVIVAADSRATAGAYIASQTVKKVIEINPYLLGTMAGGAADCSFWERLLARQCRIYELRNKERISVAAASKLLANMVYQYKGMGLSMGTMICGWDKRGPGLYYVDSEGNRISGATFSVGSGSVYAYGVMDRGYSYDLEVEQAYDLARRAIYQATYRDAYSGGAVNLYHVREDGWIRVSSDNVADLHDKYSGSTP
CT-L activity of purified 20S proteasome, sequence (G1SU71 29-241): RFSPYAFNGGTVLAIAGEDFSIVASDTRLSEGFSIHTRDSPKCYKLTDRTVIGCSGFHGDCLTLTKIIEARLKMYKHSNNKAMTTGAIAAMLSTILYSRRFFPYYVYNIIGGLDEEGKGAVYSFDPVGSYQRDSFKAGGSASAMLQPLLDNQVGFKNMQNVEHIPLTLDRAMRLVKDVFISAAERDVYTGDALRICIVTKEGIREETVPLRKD

CC(C)C[C@H](NC(=O)[C@H](Cc1ccccc1)NC(=O)c1cnccn1)B(O)O [Bortezomib]
difference in potency between Bortezomib and PI-083 ([1]; CT-L, Bortezomib vs PI-083): 100 fold | IC50 (T80-Hras ovarian cells; Homo sapiens, 24 h): > 30 µM | IC50 (T80-Hras ovarian cells; Homo sapiens, 72 h): 0.024 ± 0.01 µM | IC50 [2, 28]: > 10 µM | IC50 ([2]; patient 1, 24 h): > 10 µM | IC50 ([2]; patient 2, 24 h): > 10 µM | IC50 ([2]; patient 3, 24 h): > 10 µM | IC50 ([2]; patient 5, 24 h): > 10 µM | IC50 ([2]; patient 6, 24 h): > 10 µM | IC50 ([2]; patient 7, 24 h): > 10 µM | IC50 ([2]; patient 8, 24 h): > 10 µM | IC50 ([2]; patient 9, 24 h): > 10 µM | IC50 ([2]; patient 10, 24 h): > 10 µM | IC50 [3, 28]: > 10 µM | IC50 ([3]; patient 1, 24 h): > 10 µM | IC50 ([3]; patient 2, 24 h): > 10 µM | IC50 ([3]; patient 3, 24 h): > 10 µM | IC50 ([3]; patient 5, 24 h): > 10 µM | IC50 ([3]; patient 6, 24 h): > 10 µM | IC50 ([3]; patient 7, 24 h): > 10 µM | IC50 ([3]; patient 8, 24 h): > 10 µM | IC50 ([3]; patient 9, 24 h): > 10 µM | IC50 ([3]; patient 10, 24 h): > 10 µM | antitumor effect (in words) [4]: ineffective | average tumor size [4]: 1,448 ± 145 mm^3 | average tumor size (A549 human lung tumors): 864 ± 207 mm^3 | inhibition of tumor CT-L activity vs vehicle-treated controls [5]: 70% | inhibition of tumor T-L activity vs vehicle-treated controls [6]: 0% | inhibition of tumor PGPH activity vs vehicle-treated controls [7]: 68% | p27^Kip1 levels [8]: marked increase | apoptosis (TUNEL) ([9]; any of the 6 cell lines): induced little apoptosis | IC50 [10]: > 30 µM

O=C1C(Cl)=C(Nc2ccc(S(=O)(=O)Nc3ccccn3)cc2)C(=O)c2ccccc21 [PI-083]
IC50 ([1]; read-out: IC50 CT-L, purified 20S proteasome, in vitro): 1 ± 0.63 µM | IC50 [11]: 4.5 ± 1.4 µM | IC50 [12]: 4.5 ± 1.2 µM | IC50 ([13]; MCF-7, 24 h): 4.5 ± 0.82 µM | IC50 ([13]; MCF-7, 72 h): 2.2 ± 1.1 µM | IC50 [14, 29]: 17 ± 0.86 µM | IC50 [14, 30]: 4.2 ± 2.1 µM | IC50 [15, 29]: 2.4 ± 0.23 µM | IC50 [15, 30]: 1.9 ± 0.2 µM | IC50 ([16]; C7, 24 h): 5.1 ± 0.53 µM | IC50 ([16]; C7, 72 h): 4.2 ± 1.6 µM | IC50 (T80-Hras ovarian cells; T80-Hras, 24 h): 1.5 ± 0.57 µM | IC50 (T80-Hras ovarian cells; T80-Hras, 72 h): 2.1 ± 0.4 µM | IC50 ([17]; DU-145, 24 h): 8.6 ± 0.63 µM | IC50 ([17]; DU-145, 72 h): 5 ± 0.72 µM | IC50 [18, 29]: 14 ± 2.8 µM | IC50 [18, 30]: 5.2 ± 1.1 µM | IC50 (CaLu-1 lung cancer cells; CaLu-1, 24 h): 7.3 ± 0.43 µM | IC50 (CaLu-1 lung cancer cells; CaLu-1, 72 h): 4.9 ± 1.2 µM | IC50 (A549 lung cancer cells; A549, 24 h): 41 ± 17 µM | IC50 (A549 lung cancer cells; A549, 72 h): 11 ± 6.7 µM | IC50 ([19]; U266, 24 h): 23 ± 1.7 µM | IC50 ([19]; U266, 72 h): 7 ± 1.5 µM | IC50 ([20]; RPMI-8226, 24 h): 7.4 ± 0.38 µM | IC50 ([20]; RPMI-8226, 72 h): 10 ± 4 µM | IC50 ([21]; patient 3, 24 h): 1.4 µM | IC50 ([21]; patient 6, 24 h): 1.2 µM | IC50 ([21]; patient 9, 24 h): 1.8 µM | IC50 ([2]; patient 1, 24 h): 5 µM | IC50 ([2]; patient 2, 24 h): 2.9 µM | IC50 ([2]; patient 4, 24 h): 1.3 µM | IC50 ([2]; patient 5, 24 h): 2.2 µM | IC50 ([2]; patient 6, 24 h): 2.2 µM | IC50 ([2]; patient 10, 24 h): 10 µM | IC50 ([3]; patient 5, 24 h): 1.1 µM | IC50 ([3]; patient 10, 24 h): 9 µM | IC50 ([22]; patient 2, 24 h): > 10 µM | IC50 ([22]; patient 3, 24 h): > 10 µM | IC50 ([22]; patient 4, 24 h): 2.2 µM | IC50 ([22]; patient 4, 72 h): 2.2 µM | IC50 ([22]; patient 5, 24 h): 3.4 µM | IC50 ([22]; patient 6, 72 h): 1.4 µM | IC50 ([22]; patient 7, 24 h): 1.8 µM | IC50 ([22]; patient 7, 48 h): 1.4 µM | IC50 ([22]; patient 7, 72 h): 1.3 µM | IC50 ([22]; patient 8, 24 h): 2 µM | IC50 ([22]; patient 8, 72 h): 1.8 µM | IC50 ([22]; patient 9, 24 h): 1.4 µM | IC50 ([22]; patient 10, 24 h): > 10 µM | tumor growth inhibition [4]: 84% | average tumor size [4]: about 396 ± 137 mm^3 | tumor growth inhibition (A549 human lung tumors): 54% | average tumor size (A549 human lung tumors): about 511 ± 134 mm^3 | inhibition of tumor CT-L activity vs vehicle-treated controls [5]: 43% | inhibition of tumor T-L activity vs vehicle-treated controls [6]: 12% | inhibition of tumor PGPH activity vs vehicle-treated controls [7]: 34% | effect on liver proteasome activities (CT-L, T-L, PGPH) [23]: did not inhibit | p27^Kip1 levels [8]: marked increase | selectivity of CT-L inhibition, tumor vs non-transformed cells [24]: inhibited more selectively the CT-L activity in tumor over non-transformed cells | inhibition of proliferation, cancer vs non-transformed cells [25]: more potently than their non-transformed | cell death, cancer vs non-transformed cells [26]: much more effective in increasing cell death in all 3 cancer cell lines over their non-transformed counterparts | apoptosis (TUNEL) ([9]; T80 cells): induced very little apoptosis | apoptosis (TUNEL) ([9]; cancer cell lines MCF-7, T80-Hras and C7-Kras): induced apoptosis in all 3 cancer cell lines | apoptosis (TUNEL) ([9]; non-transformed MCF-10A and C7): did not induce apoptosis | weight, appetite, activity of treated mice [27]: no weight loss, change in appetite or activity

From article PMC2892826 (Cell cycle (Georgetown, Tex.), 2009)
